One assay has as its target AChE (Electrophorus electricus, UniProt O42275). Description: biochemical. On the procedure:
The modified method of Ellman et al. was adopted to measure AChE activity. Briefly, 25 µl (0.3 U/ml) AChE from Electric eel fish (Electrophorus electricus) was incubated with and without different concentrations of drugs selected from Molecular Docking studies. The reaction was carried out for 15 min at 25°C. […] Total volume of the reaction was made up to 1 ml by Tris buffer, pH 8.0. ATCI hydrolysis was measured by colored product formation, 5-thio-2-nitrobenzoate anion by reaction between DTNB and thiocholine, a hydrolysis product of ATCI. The formation of the colored product was measured at 405 nm wavelength after 30 min. The background was determined from negative controls (omission of AChE enzyme).
(§1) Lineweaver-Burk double reciprocal plot was plotted in order to determine the Km. […] The Ki was calculated directly from IC50 value using Cheng-Prussoffs classical equation [45]. [drawing 1]
(§2) The reciprocals of reaction rate (1/v) for each inhibitor concentration were plotted against the reciprocals of the substrate concentrations (1/S).

The target in assay [1] is T1, Aβ13–22 (Homo sapiens, UniProt P05067). The note with it: incubated 7 days, protriptyline 0.010 mM; ∼400 nm average without. On the procedure: (§3) Aβ13–22 peptide ([…]), the aggregation prone region of Aβ, was synthesized from Thermo Fisher Scientific. Synthetic Aβ13–22 peptide was dissolved in 10% ammonium hydroxide and sonicated for 5 min. It was then diluted in 10 mM PBS, pH 7.0 to a final concentration of 200 µM.

Assay [2] addresses AChE activity in neuro2a cells (Mus musculus, UniProt P21836). The note with it: 25 µM and 60 µM protriptyline. How it is done: Murine neuro2a neuroblastoma cells were obtained from National Center for Cell Science, Pune, India. The cells were maintained in Dulbecco's modified Eagle's medium (DMEM) and 10% Fetal Bovine Serum (FBS). Cells were maintained at 37°C in humidified air containing 5% CO2 and were grown in monolayer cultures.

The target of another assay is BACE-1 (Homo sapiens, UniProt P56817). Description: biochemical. How it is done:
BACE-1 activity was studied in accordance with the manufacturer's instructions (Sigma). […] Negative control included all the reactants except BACE-1 enzyme. After 2 h, fluorescence emission was measured at 405 nm upon excitation at 320 nm.
as §1, §2

The target of another assay is ADAM17 (Homo sapiens, UniProt P78536). Description: biochemical. The note with it: read-out: inhibition of ADAM 17. How it is done:
Fluorescence was measured at 328 nm and 420 nm for excitation and emission respectively.

The target of a further assay is Bovine trypsin (Bos taurus, UniProt P00760). The note with it: 0.1 and 0.5 mM. On the procedure:
Activity of Bovine trypsin was estimated using enzyme-specific chromogenic substrate BApNA [46]. […] Further, 1 ml BApNA was added to the reaction mixture and incubated for 10 min at 37°C. The reaction was terminated by addition of 200 µl of 30% acetic acid and absorbance was measured at 410 nm.

The target of assay [3] is T1, Aβ13–22. How it is done: as §3
Inhibition of aggregation/ glycation mediated aggregation of Aβ was detected by static light scattering method using a Perkin-Elmer Luminescence spectrometer LS50B. Both excitation and emission wavelengths were set at 400 nm. Excitation and emission slit width was set to 10 nm and 2.5 nm, respectively. Scattering was recorded for 60 sec.

A further assay has as its target glycation of Aβ13–22 (Homo sapiens, UniProt P05067). The note with it: excitation 370 nm, emission 440 nm; 0.1 M glucose, 7 days. On the procedure: The details of insulin and BSA glycation are described in Method S1. […] These samples were further used to study glycation mediated Aβ aggregation by different assays.
Glycation associated fluorescence of Aβ was measured in amyloid, glycated amyloid treated with or without protryptiline at 370 nm excitation and emission was scanned from 400–550 nm.

The target of assay [4] is T1, Aβ13–22. Description: biochemical. How it is done: as §3
Thioflavin T assay was performed on 7th day of incubation. 50 µl (25 µM) of Aβ13–22 was mixed with 150 µl of Thioflavin T (ThT) stock solution (50 µM ThT in PBS pH 7.0) and placed in 96-well plate (black with flat bottom, Cornings). Fluorescence emission was measured at 460–550 nm upon excitation at 440 nm. To account for background fluorescence, the fluorescence intensity measured from each control solution without Aβ was subtracted from each solution containing Aβ13–22.

The target in assay [5] is glycation of BSA (Bovine Serum Albumin) (Bos taurus, UniProt P02769). The note with it: AGE fluorescence and Thioflavin T fluorescence. How it is done: (§4) 1.5mg/ml insulin and 0.1 M glucose were incubated with various concentrations of protryptiline in 10 mM PBS, pH 7.0 for 7 days. These samples were further used to study glycation inhibition by MALDI. BSA glycation reaction was performed in a similar manner with 1mg/ml BSA concentration and inhibition was studied by AGE fluorescence and Thioflavin T assay ^1.

The next assay has as its target glycation of insulin (Homo sapiens, UniProt P01308). The note with it: MALDI; 500 µM and 1000 µM protriptyline. On the procedure:
as §4

One may read the IC50 as the concentration that inhibits the measured activity by half. Low readings indicate inhibition by little substance, high ones a need for much substance. What is called Ki is the equilibrium dissociation constant of an inhibitor or competing ligand from its target. Low values mean tighter binding, high ones weaker binding. What is called inhibition is how much of the control response was suppressed.

Chain of BACE-1 (P56817 46-501): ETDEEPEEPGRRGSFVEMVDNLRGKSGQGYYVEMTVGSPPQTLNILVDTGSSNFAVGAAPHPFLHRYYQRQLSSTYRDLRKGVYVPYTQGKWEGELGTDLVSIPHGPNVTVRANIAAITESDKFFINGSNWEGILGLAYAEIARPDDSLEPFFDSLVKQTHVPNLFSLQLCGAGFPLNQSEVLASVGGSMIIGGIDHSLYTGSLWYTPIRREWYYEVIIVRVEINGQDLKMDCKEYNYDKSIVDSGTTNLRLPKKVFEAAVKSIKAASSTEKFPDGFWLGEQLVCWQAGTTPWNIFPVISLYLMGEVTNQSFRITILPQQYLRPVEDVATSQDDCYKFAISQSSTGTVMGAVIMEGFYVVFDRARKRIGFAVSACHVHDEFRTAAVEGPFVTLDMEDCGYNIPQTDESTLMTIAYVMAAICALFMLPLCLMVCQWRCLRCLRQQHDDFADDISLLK
Chain of AChE (O42275 24-633): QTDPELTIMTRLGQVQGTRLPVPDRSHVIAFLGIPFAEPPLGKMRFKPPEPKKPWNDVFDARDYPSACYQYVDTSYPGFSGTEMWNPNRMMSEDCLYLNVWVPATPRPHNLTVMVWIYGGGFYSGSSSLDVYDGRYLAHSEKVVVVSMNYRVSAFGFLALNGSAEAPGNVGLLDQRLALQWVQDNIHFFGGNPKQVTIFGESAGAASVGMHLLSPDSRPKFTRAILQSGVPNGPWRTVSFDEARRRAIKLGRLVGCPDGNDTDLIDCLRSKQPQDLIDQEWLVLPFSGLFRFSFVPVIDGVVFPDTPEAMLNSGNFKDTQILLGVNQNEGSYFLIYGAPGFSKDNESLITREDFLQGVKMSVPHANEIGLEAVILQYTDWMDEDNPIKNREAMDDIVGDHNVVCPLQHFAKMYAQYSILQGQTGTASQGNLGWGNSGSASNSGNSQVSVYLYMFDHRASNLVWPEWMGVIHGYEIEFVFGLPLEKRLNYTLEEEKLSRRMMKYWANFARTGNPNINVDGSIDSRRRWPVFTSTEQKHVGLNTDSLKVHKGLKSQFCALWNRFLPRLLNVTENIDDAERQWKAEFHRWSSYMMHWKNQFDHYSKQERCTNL
Chain of ADAM17 (P78536 215-824, species assumed): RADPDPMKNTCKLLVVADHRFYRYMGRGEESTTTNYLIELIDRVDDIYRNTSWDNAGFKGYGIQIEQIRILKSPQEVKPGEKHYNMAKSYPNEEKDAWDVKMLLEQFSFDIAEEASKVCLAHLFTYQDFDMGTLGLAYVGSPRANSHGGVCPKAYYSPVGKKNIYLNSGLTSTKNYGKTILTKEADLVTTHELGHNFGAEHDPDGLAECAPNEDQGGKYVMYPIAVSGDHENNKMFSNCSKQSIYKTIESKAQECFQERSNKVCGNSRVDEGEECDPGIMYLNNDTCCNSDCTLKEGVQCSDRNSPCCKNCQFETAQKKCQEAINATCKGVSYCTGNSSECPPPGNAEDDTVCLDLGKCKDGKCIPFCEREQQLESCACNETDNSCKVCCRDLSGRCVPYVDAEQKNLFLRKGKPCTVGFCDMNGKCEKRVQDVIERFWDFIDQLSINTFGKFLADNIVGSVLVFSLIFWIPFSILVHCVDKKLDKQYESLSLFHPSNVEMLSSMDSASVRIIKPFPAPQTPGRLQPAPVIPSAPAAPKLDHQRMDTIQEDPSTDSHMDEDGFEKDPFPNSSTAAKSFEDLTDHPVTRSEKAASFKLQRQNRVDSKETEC
Chain of AChE activity in neuro2a cells (P21836 32-614): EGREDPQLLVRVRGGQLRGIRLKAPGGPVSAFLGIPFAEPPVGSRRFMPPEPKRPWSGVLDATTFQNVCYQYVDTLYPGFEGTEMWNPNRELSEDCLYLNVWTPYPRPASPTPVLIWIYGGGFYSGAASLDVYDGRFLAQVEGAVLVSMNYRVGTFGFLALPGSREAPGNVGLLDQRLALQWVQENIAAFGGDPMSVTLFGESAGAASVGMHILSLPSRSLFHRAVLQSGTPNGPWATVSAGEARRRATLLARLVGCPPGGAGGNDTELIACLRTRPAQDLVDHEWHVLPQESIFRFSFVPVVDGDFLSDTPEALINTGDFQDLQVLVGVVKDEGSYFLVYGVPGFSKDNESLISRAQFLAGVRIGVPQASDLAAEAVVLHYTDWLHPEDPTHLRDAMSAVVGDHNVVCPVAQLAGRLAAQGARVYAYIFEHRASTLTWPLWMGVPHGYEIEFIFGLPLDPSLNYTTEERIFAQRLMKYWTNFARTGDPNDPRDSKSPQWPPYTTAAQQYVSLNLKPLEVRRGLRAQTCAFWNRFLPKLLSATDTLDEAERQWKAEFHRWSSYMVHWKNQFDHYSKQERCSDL
Chain of glycation of BSA (Bovine Serum Albumin) (P02769 25-607): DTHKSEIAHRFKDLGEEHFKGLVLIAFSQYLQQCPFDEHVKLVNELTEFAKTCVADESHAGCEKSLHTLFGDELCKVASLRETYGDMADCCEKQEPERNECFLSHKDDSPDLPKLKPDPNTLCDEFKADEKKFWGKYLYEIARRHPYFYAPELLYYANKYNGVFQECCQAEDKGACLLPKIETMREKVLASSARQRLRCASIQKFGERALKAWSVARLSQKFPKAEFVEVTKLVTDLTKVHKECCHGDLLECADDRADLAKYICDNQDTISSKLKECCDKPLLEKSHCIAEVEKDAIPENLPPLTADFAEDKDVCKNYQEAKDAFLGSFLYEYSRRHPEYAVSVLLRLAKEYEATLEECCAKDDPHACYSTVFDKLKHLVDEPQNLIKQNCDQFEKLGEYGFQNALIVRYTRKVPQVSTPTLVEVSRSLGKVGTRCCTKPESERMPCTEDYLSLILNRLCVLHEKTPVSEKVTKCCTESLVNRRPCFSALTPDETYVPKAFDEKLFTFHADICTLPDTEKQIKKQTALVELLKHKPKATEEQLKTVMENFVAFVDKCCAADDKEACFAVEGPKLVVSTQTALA
Chain of glycation of insulin (P01308 25-54 limits assumed): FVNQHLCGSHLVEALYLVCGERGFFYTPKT
Chain of Bovine trypsin (P00760 24-246): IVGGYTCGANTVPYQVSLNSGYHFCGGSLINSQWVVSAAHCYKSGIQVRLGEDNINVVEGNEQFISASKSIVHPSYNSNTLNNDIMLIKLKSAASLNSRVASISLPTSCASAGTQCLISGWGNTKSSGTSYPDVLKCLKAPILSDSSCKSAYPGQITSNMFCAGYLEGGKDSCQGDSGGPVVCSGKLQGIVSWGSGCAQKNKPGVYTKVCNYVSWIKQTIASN

For the molecule `CN(C)CCC=C1c2ccccc2CCc2ccccc21` [amitriptyline], the IC50 against AChE amounted to 600 µM.

On AChE, `CNCCC=C1c2ccccc2CCc2ccccc21` [nortriptyline] registered an IC50 of 135 µM.

Take `CNCCCC1c2ccccc2C=Cc2ccccc21` [protriptyline]: the “height of Aβ13–22 aggregates (AFM)” value at Aβ13–22 [1] is given as around 100 nm. Besides, the “AChE activity in neuro2a cells” value in [2] is given as “concentration dependent decrease in AChE activity”. The same molecule gave a Ki on BACE-1 of 5 µM. For the same molecule, the IC50 against BACE-1 (IC50 for BACE1, summary statement) is below 150 µM. The molecule also gave an IC50 against BACE-1 (IC50 for BACE-1, 2 h at 37°C) of around 25 µM. Besides, the “type of BACE-1 inhibition” value at BACE-1 (Lineweaver-Burk plot, 15 µM protriptyline) is listed as “competitive inhibition”. Moreover, on ADAM17, the inhibition at 100 µM was around 3% and the inhibition at 500 µM is around 25%. Besides, the “inhibition of trypsin activity” value against Bovine trypsin is “not able to inhibit trypsin activity”. Besides, the “light scattering of Aβ aggregates” value on Aβ13–22 [3] is “reduced the light scattering in a concentration dependent manner”. On glycation of Aβ13–22, the “glycation associated fluorescence of Aβ” value was “reduced by protriptyline in a concentration dependent manner”. Also, on Aβ13–22 [4], the IC50 is below 150 µM, the “Thioflavin T fluorescence of Aβ13–22” value was “Concentration dependent decrease in Thioflavin T fluorescence” and the “lag time of nucleation phase of Aβ13–22 aggregation (ThT fluorescence)” value is around 50 h. In addition, the “glycation of BSA” value in assay [5] is given as “inhibited glycation”. In addition, the glycation of insulin result on glycation of insulin was “inhibited glycation of insulin”.

(Values after PMC4139341 (PLoS ONE, 2014).)
